Measured values: article PMC10321576, “Cyclic peptides target the aromatic cage of a PHD-finger reader domain to modulate epigenetic protein function” (Chemical Science, 2023)
Peptide text beside a SMILES is read from it.

Target: T1, KDM7B PHD-finger (Homo sapiens, UniProt Q9UPP1)
T1 construct: KDM7B 1-66; His-tag (C); made in house
T1 sequence (Q9UPP1 1-66 isoform Q9UPP1-2): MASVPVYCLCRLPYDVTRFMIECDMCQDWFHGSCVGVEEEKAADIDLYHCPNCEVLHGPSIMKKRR
Assay: Protein NMR 1H-15N HSQC chemical shift perturbation
Format: binding
Description: To better elucidate OC9 interactions at a single residue level, we conducted protein NMR studies using isotopically labelled PHD-finger.[48] Comparison of ^1H–^15N HSQC spectra for isotopically labelled apo and OC9-bound protein (Fig. 4a), independently assigned using ^13C,^15N 3D experiments (Fig. S21, NMR ESI ^†), identified 24 out of 66 protein residues with significant (standard deviation, s > 1) chemical shift perturbation (CSP, Δδ) of their backbone amides (Fig. 4b).
(a) ^1H–^15N HSQC of KDM7B PHD-finger in the apo (black) or bound forms with OC9 (purple, 1 : 1) or H3_1–21K4me3 (green, 3 : 1). (b) ^1H and ^15N chemical shift changes for apo vs. + OC9 were combined and weighted to give chemical shift perturbation (CSP) (Δδ) values. Standard deviation (σ) of Δδ are indicated (>1 pink, >2 purple). (c) TALOS+ predicts similar secondary structure elements in apo and OC9-bound solution protein complexes (light grey) to those found in PDB ID 3KV4 (dark grey). […] (e) Shielded ^1H-NMR signals centred around −0.5 ppm belonging to the OC9 V10 γ-methyl groups are observed in some OC9–PHD complexes, but not in apo protein, or complexes with OC9 V10A and OC9 V10DV. The V10^OC9 γ-methyl signals have NOE interactions (black semi-circles) with the W29^PHD indole, which itself is shielded upon binding of OC9 (indicated by ΔδH values).

Q: Which “CSP His49, OC9 vs OC9 L3A” value (residue His49 amide, PHD+OC9 vs PHD+OC9 L3A) does the source give for `CC(C)[C@@H]1NC(=O)[C@H](CO)NC(=O)[C@@H]2CCCN2C(=O)[C@H](Cc2ccc(O)cc2)NC(=O)[C@@H]2CCCN2C(=O)[C@H](Cc2c[nH]cn2)NC(=O)[C@H]([C@@H](C)O)NC(=O)[C@H](C)NC(=O)[C@H](Cc2ccc(O)cc2)NC(=O)[C@H](Cc2ccc(O)cc2)NC(=O)CSC[C@@H](C(N)=O)NC(=O)[C@H]([C@@H](C)O)NC(=O)[C@H](CCCNC(=N)N)NC(=O)[C@H](Cc2ccccc2)NC1=O` [L3A] (HELM PEPTIDE1{[O=C(C[*:3])[*:2]].Y.Y.A.T.H.P.Y.P.S.V.F.R.T.C.[am]}$PEPTIDE1,PEPTIDE1,1:R3-15:R3$$$V2.0; C-terminus assumed) here?
A: Its value is 0.0165.

Q: What about the “CSP His57” value (residue His57 amide 1H-15N, Free PHD vs PHD+peptide) of the same compound?
A: Its value is 0.0486.

Q: And the “CSP His57, OC9 vs OC9 L3A” value (residue His57 amide, PHD+OC9 vs PHD+OC9 L3A)?
A: Its value is 0.0065.

Q: What about the “CSP Ile21” value (residue Ile21 amide 1H-15N, Free PHD vs PHD+peptide) of the same compound?
A: Its value is 0.1438.

Q: And the “CSP Ile21, OC9 vs OC9 L3A” value (residue Ile21 amide, PHD+OC9 vs PHD+OC9 L3A)?
A: Its value is 0.0277.

Q: What about the “CSP Ile45” value (residue Ile45 amide 1H-15N, Free PHD vs PHD+peptide) of the same compound?
A: The value was 0.1010.

Q: And the “CSP Ile45, OC9 vs OC9 L3A” value (residue Ile45 amide, PHD+OC9 vs PHD+OC9 L3A)?
A: Its value is 0.0202.

Q: And the “CSP Ile61” value (residue Ile61 amide 1H-15N, Free PHD vs PHD+peptide)?
A: The value was 0.1437.

Q: And the “CSP Ile61, OC9 vs OC9 L3A” value (residue Ile61 amide, PHD+OC9 vs PHD+OC9 L3A)?
A: The value was 0.0065.

Q: What about the “CSP Leu9” value (residue Leu9 amide 1H-15N, Free PHD vs PHD+peptide) of the same compound?
A: The value was 0.1892.

Q: What about the “CSP Leu9, OC9 vs OC9 L3A” value (residue Leu9 amide, PHD+OC9 vs PHD+OC9 L3A) of the same compound?
A: The value was 0.0129.

Q: And the “CSP Leu12” value (residue Leu12 amide 1H-15N, Free PHD vs PHD+peptide)?
A: Its value is 0.1747.

Q: What about the “CSP Leu12, OC9 vs OC9 L3A” value (residue Leu12 amide, PHD+OC9 vs PHD+OC9 L3A) of the same compound?
A: Its value is 0.0115.

Q: What about the “CSP Leu47” value (residue Leu47 amide 1H-15N, Free PHD vs PHD+peptide) of the same compound?
A: The value was 0.1015.

Q: And the “CSP Leu47, OC9 vs OC9 L3A” value (residue Leu47 amide, PHD+OC9 vs PHD+OC9 L3A)?
A: Its value is 0.0102.

Q: What about the “CSP Leu56” value (residue Leu56 amide 1H-15N, Free PHD vs PHD+peptide) of the same compound?
A: The value was 0.0523.

Q: What about the “CSP Leu56, OC9 vs OC9 L3A” value (residue Leu56 amide, PHD+OC9 vs PHD+OC9 L3A) of the same compound?
A: Its value is 0.0102.

Q: What about the “CSP Lys41” value (residue Lys41 amide 1H-15N, Free PHD vs PHD+peptide) of the same compound?
A: The value was 0.1015.

Q: And the “CSP Lys41, OC9 vs OC9 L3A” value (residue Lys41 amide, PHD+OC9 vs PHD+OC9 L3A)?
A: The value was 0.0275.

Q: And the “CSP Lys63” value (residue Lys63 amide 1H-15N, Free PHD vs PHD+peptide)?
A: The value was 0.1309.

Q: And the “CSP Lys63, OC9 vs OC9 L3A” value (residue Lys63 amide, PHD+OC9 vs PHD+OC9 L3A)?
A: Its value is 0.0000.

Q: And the “CSP Lys64” value (residue Lys64 amide 1H-15N, Free PHD vs PHD+peptide)?
A: The value was 0.0250.

Q: What about the “CSP Lys64, OC9 vs OC9 L3A” value (residue Lys64 amide, PHD+OC9 vs PHD+OC9 L3A) of the same compound?
A: The value was 0.0034.

Q: And the “CSP Met20” value (residue Met20 amide 1H-15N, Free PHD vs PHD+peptide)?
A: Its value is 0.3554.

Q: What about the “CSP Met20, OC9 vs OC9 L3A” value (residue Met20 amide, PHD+OC9 vs PHD+OC9 L3A) of the same compound?
A: The value was 0.0065.

Q: What about the “CSP Met25” value (residue Met25 amide 1H-15N, Free PHD vs PHD+peptide) of the same compound?
A: Its value is 0.7126.

Q: And the “CSP Met25, OC9 vs OC9 L3A” value (residue Met25 amide, PHD+OC9 vs PHD+OC9 L3A)?
A: The value was 0.0388.

Q: What about the “CSP Met62” value (residue Met62 amide 1H-15N, Free PHD vs PHD+peptide) of the same compound?
A: The value was 0.0950.

Q: What about the “CSP Met62, OC9 vs OC9 L3A” value (residue Met62 amide, PHD+OC9 vs PHD+OC9 L3A) of the same compound?
A: Its value is 0.0055.

Q: And the “CSP Phe19” value (residue Phe19 amide 1H-15N, Free PHD vs PHD+peptide)?
A: The value was 0.3115.

Q: And the “CSP Phe19, OC9 vs OC9 L3A” value (residue Phe19 amide, PHD+OC9 vs PHD+OC9 L3A)?
A: Its value is 0.0174.

Q: And the “CSP Phe30” value (residue Phe30 amide 1H-15N, Free PHD vs PHD+peptide)?
A: Its value is 0.2578.

Q: And the “CSP Phe30, OC9 vs OC9 L3A” value (residue Phe30 amide, PHD+OC9 vs PHD+OC9 L3A)?
A: The value was 0.0115.

Q: And the “CSP Ser3” value (residue Ser3 amide 1H-15N, Free PHD vs PHD+peptide)?
A: The value was 0.0045.

Q: What about the “CSP Ser3, OC9 vs OC9 L3A” value (residue Ser3 amide, PHD+OC9 vs PHD+OC9 L3A) of the same compound?
A: Its value is 0.0000.

Q: And the “CSP Ser33” value (residue Ser33 amide 1H-15N, Free PHD vs PHD+peptide)?
A: The value was 0.1165.

Q: What about the “CSP Ser33, OC9 vs OC9 L3A” value (residue Ser33 amide, PHD+OC9 vs PHD+OC9 L3A) of the same compound?
A: The value was 0.0065.

Q: And the “CSP Ser60” value (residue Ser60 amide 1H-15N, Free PHD vs PHD+peptide)?
A: The value was 0.0496.

Q: And the “CSP Ser60, OC9 vs OC9 L3A” value (residue Ser60 amide, PHD+OC9 vs PHD+OC9 L3A)?
A: Its value is 0.0034.

Q: What about the “CSP Thr17” value (residue Thr17 amide 1H-15N, Free PHD vs PHD+peptide) of the same compound?
A: The value was 0.2647.

Q: What about the “CSP Thr17, OC9 vs OC9 L3A” value (residue Thr17 amide, PHD+OC9 vs PHD+OC9 L3A) of the same compound?
A: The value was 0.0068.

Q: What about the “CSP Trp29” value (residue Trp29 amide 1H-15N, Free PHD vs PHD+peptide) of the same compound?
A: The value was 0.3312.

Q: And the “CSP Trp29, OC9 vs OC9 L3A” value (residue Trp29 amide, PHD+OC9 vs PHD+OC9 L3A)?
A: Its value is 0.0599.

Q: What about the “CSP Tyr7” value (residue Tyr7 amide 1H-15N, Free PHD vs PHD+peptide) of the same compound?
A: Its value is 0.2566.

Q: And the “CSP Tyr7, OC9 vs OC9 L3A” value (residue Tyr7 amide, PHD+OC9 vs PHD+OC9 L3A)?
A: The value was 0.0115.

Q: And the “CSP Tyr14” value (residue Tyr14 amide 1H-15N, Free PHD vs PHD+peptide)?
A: The value was 0.3127.

Q: What about the “CSP Tyr14, OC9 vs OC9 L3A” value (residue Tyr14 amide, PHD+OC9 vs PHD+OC9 L3A) of the same compound?
A: The value was 0.0065.

Q: And the “CSP Tyr48” value (residue Tyr48 amide 1H-15N, Free PHD vs PHD+peptide)?
A: The value was 0.8682.

Q: What about the “CSP Tyr48, OC9 vs OC9 L3A” value (residue Tyr48 amide, PHD+OC9 vs PHD+OC9 L3A) of the same compound?
A: The value was 0.0765.

Q: And the “CSP Val4” value (residue Val4 amide 1H-15N, Free PHD vs PHD+peptide)?
A: Its value is 0.0240.

Q: What about the “CSP Val4, OC9 vs OC9 L3A” value (residue Val4 amide, PHD+OC9 vs PHD+OC9 L3A) of the same compound?
A: Its value is 0.0068.

Q: And the “CSP Val6” value (residue Val6 amide 1H-15N, Free PHD vs PHD+peptide)?
A: Its value is 0.1640.

Q: And the “CSP Val6, OC9 vs OC9 L3A” value (residue Val6 amide, PHD+OC9 vs PHD+OC9 L3A)?
A: Its value is 0.0055.

Q: What about the “CSP Val16” value (residue Val16 amide 1H-15N, Free PHD vs PHD+peptide) of the same compound?
A: Its value is 0.3687.

Q: What about the “CSP Val16, OC9 vs OC9 L3A” value (residue Val16 amide, PHD+OC9 vs PHD+OC9 L3A) of the same compound?
A: The value was 0.0230.

Q: What about the “CSP Val35” value (residue Val35 amide 1H-15N, Free PHD vs PHD+peptide) of the same compound?
A: The value was 0.0569.

Q: And the “CSP Val35, OC9 vs OC9 L3A” value (residue Val35 amide, PHD+OC9 vs PHD+OC9 L3A)?
A: Its value is 0.0102.

Q: And the “CSP Val37” value (residue Val37 amide 1H-15N, Free PHD vs PHD+peptide)?
A: Its value is 0.0783.

Q: What about the “CSP Val37, OC9 vs OC9 L3A” value (residue Val37 amide, PHD+OC9 vs PHD+OC9 L3A) of the same compound?
A: The value was 0.0065.

Q: And the “CSP Val55” value (residue Val55 amide 1H-15N, Free PHD vs PHD+peptide)?
A: The value was 0.0206.

Q: What about the “CSP Val55, OC9 vs OC9 L3A” value (residue Val55 amide, PHD+OC9 vs PHD+OC9 L3A) of the same compound?
A: The value was 0.0055.
